According to ChEMBL document CHEMBL1139775, “A novel ketolide class: Synthesis and antibacterial activity of a lead compound” (2007):
In brackets after ≈: the same amount, converted by molar mass.

How the values were obtained:
Type in all cases: functional
Staphylococcus aureus [1] = assay: Antibacterial activity against […] MLSc
Streptococcus pneumoniae [2] = assay: Antibacterial activity against erythromycin-sensitive Streptococcus pneumoniae
Escherichia coli = assay: Antibacterial activity against Escherichia coli ATCC 25922
Haemophilus influenzae = assay: Antibacterial activity against Haemophilus influenzae ATCC 49247
Streptococcus pneumoniae [3] = assay: Antibacterial activity against Streptococcus pneumoniae 4636 MLSc
Streptococcus pyogenes [4] = assay: Antibacterial activity against erythromycin-sensitive Streptococcus pyogenes 3565
Moraxella catarrhalis = assay: Antibacterial activity against Moraxella catarrhalis ATCC 23246
Streptococcus pyogenes [5] = assay: Antibacterial activity against Streptococcus pyogenes M
Staphylococcus aureus [6] = assay: Antibacterial activity against erythromycin-sensitive Staphylococcus aureus ATCC 13709
Streptococcus pneumoniae [7] = assay: Antibacterial activity against Streptococcus pneumoniae CI137 M
Streptococcus pyogenes [8] = assay: Antibacterial activity against Streptococcus pyogenes MLSi

MIC (Staphylococcus aureus [1]) | MIC (Streptococcus pneumoniae [2]) | MIC (Escherichia coli) | MIC (Haemophilus influenzae) | MIC (Streptococcus pneumoniae [3]) | MIC (Streptococcus pyogenes [4]) | MIC (Moraxella catarrhalis) | MIC (Streptococcus pyogenes [5]) | MIC (Staphylococcus aureus [6]) | MIC (Streptococcus pneumoniae [7]) | MIC (Streptococcus pyogenes [8]) | Structure (SMILES)
> 128 µg/mL | 0.06 µg/mL (≈ 0.0979 µM) | 64 µg/mL (≈ 104 µM) | 16 µg/mL (≈ 26.1 µM) | > 128 µg/mL | 0.06 µg/mL (≈ 0.0979 µM) | 0.12 µg/mL (≈ 0.196 µM) | 0.25 µg/mL (≈ 0.408 µM) | 0.25 µg/mL (≈ 0.408 µM) | 0.25 µg/mL (≈ 0.408 µM) | 0.06 µg/mL (≈ 0.0979 µM) | CC[C@@H]1OC(=O)[C@H](C)C(=O)[C@H](C)[C@@H](O[C@@H]2O[C@H](C)C[C@H](N(C)C)[C@H]2O)[C@@](C)(OC)C[C@@H](C)C(=O)[C@H](C)[C@H]2NC(=O)O[C@]12C
> 128 µg/mL | ≤ 0.06 µg/mL | 128 µg/mL (≈ 209 µM) | 16 µg/mL (≈ 26.2 µM) | > 128 µg/mL | 0.12 µg/mL (≈ 0.196 µM) | 0.5 µg/mL (≈ 0.817 µM) | 0.12 µg/mL (≈ 0.196 µM) | 0.5 µg/mL (≈ 0.817 µM) | 0.12 µg/mL (≈ 0.196 µM) | 0.5 µg/mL (≈ 0.817 µM) | CC[C@@H]1OC(=O)[C@H](C)C(=O)[C@H](C)[C@@H](O[C@@H]2O[C@H](C)C[C@H](N(C)C)[C@H]2O)[C@@](C)(OC)C[C@@H](C)C(=O)[C@H](C)[C@H]2CC(=O)O[C@]12C

Structure (SMILES) | MIC (Staphylococcus aureus [1]) | MIC (Streptococcus pneumoniae [2]) | MIC (Escherichia coli) | MIC (Haemophilus influenzae) | MIC (Streptococcus pneumoniae [3]) | MIC (Streptococcus pyogenes [4]) | MIC (Moraxella catarrhalis) | MIC (Streptococcus pyogenes [5]) | MIC (Staphylococcus aureus [6]) | MIC (Streptococcus pneumoniae [7]) | MIC (Streptococcus pyogenes [8])
CC[C@H]1OC(=O)[C@H](C)[C@@H](O[C@H]2C[C@@](C)(OC)[C@@H](O)[C@H](C)O2)[C@H](C)[C@@H](O[C@@H]2O[C@H](C)C[C@H](N(C)C)[C@H]2O)[C@](C)(OC)C[C@@H](C)C(=O)[C@H](C)[C@@H](O)[C@]1(C)O [CLARITHROMYCIN] | > 32 µg/mL | ≤ 0.06 µg/mL | 64 µg/mL (≈ 85.6 µM) | 8 µg/mL (≈ 10.7 µM) | > 128 µg/mL | ≤ 0.06 µg/mL | ≤ 0.25 µg/mL | 2 µg/mL (≈ 2.67 µM) | 0.25 µg/mL (≈ 0.334 µM) | 8 µg/mL (≈ 10.7 µM) | 2 µg/mL (≈ 2.67 µM)
